Drawing on patent publication US8063077B2, “Factor Xa inhibitors” (Millennium Pharmaceuticals, Inc., priority 2006, dated 2011), this text covers IC50 for 27 compounds.

pIC50: −log10 of the molar value.

The target in the test is T1, human plasma protein factor Xa (Homo sapiens, UniProt P00742).
T1 construct: The human plasma protein factor Xa was purchased from Haematologic Technologies; purchased Haematologic Technologies (Essex Junction, Vt.); host or cells: human plasma
T1 sequence (P00742 235-488 limits assumed): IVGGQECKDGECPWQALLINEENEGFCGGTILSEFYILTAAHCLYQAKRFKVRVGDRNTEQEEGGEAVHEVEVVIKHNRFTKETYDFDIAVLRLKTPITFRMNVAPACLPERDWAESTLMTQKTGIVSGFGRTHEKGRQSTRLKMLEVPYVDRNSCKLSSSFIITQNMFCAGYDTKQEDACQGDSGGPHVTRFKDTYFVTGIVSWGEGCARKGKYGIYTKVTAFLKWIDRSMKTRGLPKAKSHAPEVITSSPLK
T1 sequence (P00742 41-179 partner limits assumed): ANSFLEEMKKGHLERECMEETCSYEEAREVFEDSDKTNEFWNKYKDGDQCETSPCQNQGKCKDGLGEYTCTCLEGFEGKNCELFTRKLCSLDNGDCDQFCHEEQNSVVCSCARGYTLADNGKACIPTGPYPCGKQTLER
Description: Factor Xa IC50 determination, cleavage of paranitroanilide substrate S-2765. It is filed as biochemical. Conditions: factor Xa 1 nM, S2765 100 μM, Tris buffered saline pH 7.4, 5% DMSO. An excerpt: This example illustrates methods for evaluating the compounds of the invention, along with results obtained for such assays. The in vitro and in vivo human Factor Xa activities of the inventive compounds can be determined by various procedures known in the art, such as a test for their ability to inhibit the activity of human plasma Factor Xa. […] The IC50 value is the concentration (in nM) of the compound required to provide 50% inhibition of human Factor Xa proteolytic activity.
An in vitro assay for detecting and measuring inhibition activity against Factor Xa is as follows:
The substrate S-2765 (Z-D-Arg-Gly-Arg-pNA•HCl) was obtained from Diapharma (West Chester, Ohio).
The human plasma protein factor Xa was purchased from Haematologic Technologies (Essex Junction, Vt.).
All assays, which are performed in 96-well microtiter plates, measure proteolytic activity of the enzyme (factor Xa) by following cleavage of a paranitroanilide peptide substrate. The assay buffer used for proteolytic assays was Tris buffered saline (20 mM Tris, 150 mM NaCl, 5 mM CaCl2, 0.1% Bovine serum albumin (BSA), 5% Dimethly Sulfoxide (DMSO) pH 7.4). In a 96-well microtiter plate, inhibitor was serially diluted to give a range of final concentrations from 0.01 nM to 10 μM. Duplicate sets of wells were assayed and control wells without inhibitor were included. Enzyme was added to each well, (factor Xa concentration=1 nM), the plate was shaken for 5 seconds and then incubated for 5 minutes at room temperature. S2765 was added (100 μM final) and the plate was shaken for 5 seconds (final volume in each well was 200 μl). The degree of substrate hydrolysis was measured at 405 nm on a Thermomax plate reader (Molecular Devices, Sunnyvale, Calif.) for 2 minutes. The initial velocities of substrate cleavage (mOD/min), for each range of inhibitor concentrations, were fitted to a four parameter equation using Softmax data analysis software. The parameter C, derived from the resulting curve-fit, corresponded to the concentration for half maximal inhibition (IC50).
As a reminder, the pIC50 is the negative decadic logarithm of the IC50, by convention in mol/L. In turn, `O=C(NCc1cn(-c2ccc(-n3cccc(F)c3=O)cc2)cn1)c1ccc(Cl)s1` [Compound 43, 5-chloro-N-((1-(4-(3-fluoro-2-oxopyridin-1(2H)-yl)phenyl)-1H-imidazol-4-yl)methyl)thiophene-2-carboxamide] gave a pIC50 of no less than 7.00.
`N#C/N=c1\ccccn1-c1ccc(-n2cnc(CNC(=O)c3ccc(Cl)s3)c2)cc1` [Compound 33, (E)-5-chloro-N-((1-(4-(2-(cyanoimino)pyridin-1(2H)-yl)phenyl)-1H-imidazol-4-yl)methyl)thiophene-2-carboxamide] gave a negative logarithm of the IC50 (pIC50) of no less than 7.00.
The figure for `O=C(NCc1cn(-c2ccc(N3CCSCC3=O)cc2)cn1)c1ccc(Cl)s1` [Compound 15, 5-Chloro-N-((1-(4-(3-oxothiomorpholino)phenyl)-1H-imidazol-4-yl)methyl)thiophene-2-carboxamide] is no less than 7.00; for `CS(=O)(=O)c1cc(-n2ccccc2=O)ccc1-n1cnc(CNC(=O)c2ccc(Cl)s2)c1` [Compound 22, 5-Chloro-N-((1-(2-(methylsulfonyl)-4-(2-oxopyridin-1(2H)-yl)phenyl)-1H-imidazol-4-yl)methyl)thiophene-2-carboxamide] it is no less than 7.00; for `Cc1ccc(=O)n(-c2ccc(-n3cnc(CNC(=O)c4ccc(Cl)s4)c3)cc2)c1` [Compound 45, 5-chloro-N-((1-(4-(5-methyl-2-oxopyridin-1(2H)-yl)phenyl)-1H-imidazol-4-yl)methyl)thiophene-2-carboxamide] it is no less than 7.00.
With `O=C(NCc1cn(-c2ccc(-n3ccccc3=O)cc2)cn1)c1ccc2[nH]ccc2c1` [Compound 54, N-((1-(4-(2-oxopyridin-1(2H)-yl)phenyl)-1H-imidazol-4-yl)methyl)-1H-indole-5-carboxamide] the figure was no more than 6.30; with `C[S+]([O-])c1cc(-n2ccccc2=O)ccc1-n1cnc(CNC(=O)c2ccc(Cl)s2)c1` (stereo not drawn) [Compound 23, 5-chloro-N-((1-(2-(methylsulfinyl)-4-(2-oxopyridin-1(2H)-yl)phenyl)-1H-imidazol-4-yl)methyl)thiophene-2-carboxamide], no less than 7.00; with `O=C(NCc1cn(-c2ccc(N3CC[S+]([O-])CC3=O)cc2)cn1)c1ccc(Cl)s1` (stereo not drawn) [Compound 17, 5-Chloro-N-((1-(4-(1,3-dioxothiomorpholino)phenyl)-1H-imidazol-4-yl)methyl)thiophene-2-carboxamide], 6.30 to 7.00.
The figure for `O=C(NCc1cn(-c2ccc(-n3ccccc3=O)cc2F)cn1)c1ccc(Cl)s1` [Compound 21, 5-Chloro-N-((1-(2-fluoro-4-(2-oxopyridin-1(2H)-yl)phenyl)-1H-imidazol-4-yl)methyl)thiophene-2-carboxamide] is no less than 7.00; for `O=C(NCc1cn(-c2ccc(-n3ccccc3=S)cc2)cn1)c1ccc(Cl)s1` [Compound 30, 5-Chloro-N-((1-(4-(2-thioxopyridin-1(2H)-yl)phenyl)-1H-imidazol-4-yl)methyl)thiophene-2-carboxamide] it is no less than 7.00.
`CC(=O)/N=c1\ccccn1-c1ccc(-n2cnc(CNC(=O)c3ccc(Cl)s3)c2)cc1` [Compound 36, (E)-N-((1-(4-(2-(acetylimino)pyridin-1(2H)-yl)phenyl)-1H-imidazol-4-yl)methyl)-5-chlorothiophene-2-carboxamide]: the pIC50 was no less than 7.00.
In the case of `Cn1cc(Cl)cc1C(=O)NCc1cn(-c2ccc(-n3ccccc3=O)cc2)cn1` [Compound 37, 4-chloro-1-methyl-N-((1-(4-(2-oxopyridin-1(2H)-yl)phenyl)-1H-imidazol-4-yl)methyl)-1H-pyrrole-2-carboxamide], the pIC50 is no more than 6.30.
With `O=C(NCc1cn(-c2ccc(-n3cccc(OCCO)c3=O)cc2)cn1)c1ccc(Cl)s1` [Compound 59, 5-chloro-N-((1-(4-(3-(2-hydroxyethoxy)-2-oxopyridin-1(2H)-yl)phenyl)-1H-imidazol-4-yl)methyl)thiophene-2-carboxamide] the figure was no less than 7.00; with `COc1cccn(-c2ccc(-n3cnc(CNC(=O)c4ccc(Cl)s4)c3)cc2)c1=O` [Compound 41, 5-chloro-N-((1-(4-(3-methoxy-2-oxopyridin-1(2H)-yl)phenyl)-1H-imidazol-4-yl)methyl)thiophene-2-carboxamide], no less than 7.00; with `O=C(NCc1cn(-c2ccc(N3CCNC3=O)cc2)cn1)c1ccc(Cl)s1` [Compound 19, 5-Chloro-N-((1-(4-(2-oxoimidazolidin-1-yl)phenyl)-1H-imidazol-4-yl)methyl)thiophene-2-carboxamide], 6.30 to 7.00.
With `CS(=O)(=O)c1nc(CNC(=O)c2ccc(Cl)s2)cn1-c1ccc(-n2ccccc2=O)cc1` [Compound 56, 5-chloro-N-((2-(methylsulfonyl)-1-(4-(2-oxopyridin-1(2H)-yl)phenyl)-1H-imidazol-4-yl)methyl)thiophene-2-carboxamide] the figure was no less than 7.00; with `CSc1nc(CNC(=O)c2ccc(Cl)s2)cn1-c1ccc(-n2ccccc2=O)cc1` [Compound 55, 5-chloro-N-((2-(methylthio)-1-(4-(2-oxopyridin-1(2H)-yl)phenyl)-1H-imidazol-4-yl)methyl)thiophene-2-carboxamide], no less than 7.00.
With `O=C(NCc1cn(-c2ccc(-n3ccccc3=O)cc2N2CCS(=O)(=O)CC2)cn1)c1ccc(Cl)s1` [Compound 25, 5-Chloro-N-((1-(4-(2-oxopyridin-1(2H)-yl)-2-(1,1-dioxo-thiomorpholin-4-yl)phenyl)-1H-imidazol-4-yl)methyl)thiophene-2-carboxamide] the figure was no less than 7.00.
`O=C(NCc1cn(-c2ccc(-n3ccnc(O)c3=O)cc2)cn1)c1ccc(Cl)s1` [Compound 58, 5-chloro-N-((1-(4-(3-hydroxy-2-oxopyrazin-1(2H)-yl)phenyl)-1H-imidazol-4-yl)methyl)thiophene-2-carboxamide]: the pIC50 is no less than 7.00.
Take `C[S+]([O-])c1nc(CNC(=O)c2ccc(Cl)s2)cn1-c1ccc(-n2ccccc2=O)cc1` (stereo not drawn) [Compound 57, 5-chloro-N-((2-(methylsulfinyl)-1-(4-(2-oxopyridin-1(2H)-yl)phenyl)-1H-imidazol-4-yl)methyl)thiophene-2-carboxamide]: the pIC50 was no less than 7.00.
The figure for `NC(=O)/N=c1\ccccn1-c1ccc(-n2cnc(CNC(=O)c3ccc(Cl)s3)c2)cc1` [Compound 61, N-((1-(4-(2-(carbamoylimino)pyridin-1(2H)-yl)phenyl)-1H-imidazol-4-yl)methyl)-5-chlorothiophene-2-carboxamide] is no less than 7.00; for `C[S+]([O-])c1nc(CNC(=O)c2ccc(Cl)s2)cn1-c1ccc(-n2cc(F)ccc2=O)cc1` (stereo not drawn) [Compound 64, 5-chloro-N-((1-(4-(5-fluoro-2-oxopyridin-1(2H)-yl)phenyl)-2-(methylsulfinyl)-1H-imidazol-4-yl)methyl)thiophene-2-carboxamide] it is no less than 7.00; for `O=C(NCc1cn(-c2ccc(-n3ccccc3=O)cc2N2CCSCC2)cn1)c1ccc(Cl)s1` [Compound 24, 5-Chloro-N-((1-(4-(2-oxopyridin-1(2H)-yl)-2-thiomorpholinophenyl)-1H-imidazol-4-yl)methyl)thiophene-2-carboxamide] it is no less than 7.00.
With `Cn1c(=O)ccn(-c2ccc(-n3cnc(CNC(=O)c4ccc(Cl)s4)c3)cc2)c1=O` [Compound 49, 5-chloro-N-((1-(4-(3-methyl-2,4-dioxo-3,4-dihydropyrimidin-1(2H)-yl)phenyl)-1H-imidazol-4-yl)methyl)thiophene-2-carboxamide] the figure was no less than 7.00.
With `C/N=c1\ccccn1-c1ccc(-n2cnc(CNC(=O)c3ccc(Cl)s3)c2)cc1` [Compound 34, (E)-5-chloro-N-((1-(4-(2-(methylimino)pyridin-1(2H)-yl)phenyl)-1H-imidazol-4-yl)methyl)thiophene-2-carboxamide] the figure was no less than 7.00; with `O=C(NCc1cn(-c2ccc(-n3ccc(=O)[nH]c3=O)cc2)cn1)c1ccc(Cl)s1` [Compound 47, 5-chloro-N-((1-(4-(2,4-dioxo-3,4-dihydropyrimidin-1(2H)-yl)phenyl)-1H-imidazol-4-yl)methyl)thiophene-2-carboxamide], no less than 7.00.
As to `C#Cc1ccc(C(=O)NCc2cn(-c3ccc(-n4ccccc4=O)cc3)cn2)s1` [Compound 32, 5-Ethynyl-N-((1-(4-(2-oxopyridin-1(2H)-yl)phenyl)-1H-imidazol-4-yl)methyl)thiophene-2-carboxamide], the pIC50 was no less than 7.00.
